Measured values: US5962533A, “Hydroxy polyamines” (priority 1996, dated 1999)
Several values for one entry are separate records, joined by “and”; a condition that tells them apart may be missing. Equal entries are not always repeated. Where two headings read alike, the source gives them in different places.

Key:
[1] = Acute toxicity, single intraperitoneal injection; conditions: mouse, in vivo, ip
L1210 cells [2] = assay: L1210 growth inhibition, IC50 determinations; assay type: cell-based, Murine; conditions: L1210 cells
Experimental: IC50 Determinations. Cells were grown in 25 cm^2 tissue culture flasks in a total volume of 10 ml. Cultures were treated while in logarithmic growth (0.5-1.0×10^5 cells/ml) with the polyamine derivative diluted in sterile water and filtered through a 0.2 μm filter.
After the indicated time periods, cells were removed from the incubator for counting. Cell number was determined by electronic particle counting (Model ZF coulter counter, Coulter Electronics, Hialeah, Fla.) and confirmed periodically with hemocytometer measurements.
The percentage of control growth was determined as follows: [formula]

[3] = Chronic toxicity, one dose per day for five days; assay type: in vivo; conditions: mouse, in vivo
Experimental: In the chronic toxicity regimen, mice were administered the polyamine analogue as one dose per day for five days. Appetite, weight and overall physical appearance were recorded at the time of each injection. After the treatment regimen had been completed, the animals were observed an additional 10 days. The chronic toxicity dosing regimen was set up so that at least one test group was presented with a high fraction of lethalities.

L1210 cells [4] = assay: Polyamine pool analysis in analogue-treated L1210 cells (HPLC); assay type: cell-based, Murine
Experimental: Polyamine Pool Analysis. While in logarithmic growth, cells were treated with the polyamine derivatives. […] Each supernatant was frozen at -20° C. until analysis by HPLC.

[5] = tested on: castor oil-induced diarrhea; assay: Castor oil-induced diarrhea; assay type: in vivo, rat; conditions: rat
Source text: Castor Oil-Induced Diarrhea. Male Sprague-Dawley rats (350-400 g) were fasted overnight in hanging wire cages and allowed free access to water.

[6] = mice, three weeks after a seven day schedule; cited from earlier work
[7] = Metabolism of (HO)2 DEHSPM v. DEHSPM in mouse liver and kidney (HPLC); assay type: in vivo
Experimental: Metabolism of (HO)2 DEHSPM v. DEHSPM in Mouse Liver and Kidney. […] In ease case, animals were sacrificed for HPLC analysis one day after the final dose.
HPLC Analysis of Polyamines. Various tissues including the liver and kidney were prepared for HPLC analysis of polyamine content. In order to facilitate their handling, the organs were submerged in liquid nitrogen. Once frozen and weighed, the tissues were homogenized (Tissuemizer, Tekmar, Cincinnati, Ohio) in 1.2N perchloric acid (containing 1,7-diaminoheptane internal standard) in a 1:20 (w/v) ratio. The tissue homogenates were then freeze-thawed three times and stored in a -70° C. freezer until HPLC analysis was performed.
Each chromatographic assay included calibration standards which were treated in the same manner as the samples. […] The concentration of each polyamine was calculated from the peak area by calibration curves obtained by non-weighted least squares linear regression. Peak area and linear regression calculations were performed on a Macintosh Centris 650 with Rainin Dynamax HPLC Method Manager software (Rainin Instrument Co., Ridgefield, N.J.).

[8] = tested on: polyamine transport apparatus; assay: Competition with radiolabeled spermidine for uptake into L1210 cells (Ki); assay type: cell-based, Murine; conditions: L1210 cells
Experimental: The same cell line was utilized to evaluate the tetraamines's competition with radiolabeled spermidine for the polyamine uptake apparatus (Ki). The Ki values here are the concentrations of drugs required to inhibit the uptake of radioactive spermidine transport by 50% (Table 1).
Uptake Determinations. The polyamine derivatives were studied for their ability to compete with [^3 H]SPD or [^14 C]SPD for uptake into L1210 leukemia cells in vitro. Cell suspensions were incubated in 1 ml of RPMI-1640 containing 1, 2, 4, 6, 8 and 10 μm radiolabeled SPD alone or with the additional presence of 10, 25 and 50 μm polyamine analogue for 20 minutes at 37° C. At the end of the incubation period, tubes were centrifuged at 900 g for 5 minutes at 0-4° C. The pellet was washed twice with 5 ml of cold RPMI-1640 containing 1 mm SPD, dissolved in 200 μl of 1N NaOH at 60° C. for 1 hour, and neutralized with 1N HCl. The material was transferred to a vial for scintillation counting.

NMDA receptor = assay: NMDA assay: specific [3H]MK-801 binding to washed rat cerebral cortical membranes; conditions: 100 μm L-glutamate, 100 μm glycine, 2 nm [3H]MK-801
Source text: FIG. 4 depicts the effects of (HO)2 DEHSPM and DEHSPM on the NMDA receptor (MK-801 binding). Each data point represents the mean ±s.d. of three experiments. Each experiment was, in turn, performed in triplicate. "100% activity" is defined as the amount of specific MK-801 binding to washed rat cerebral cortical membranes in the presence of saturating concentrations of coagonists (100 μm L-glutamate, 100 μm glycine) and 2 nm [^3 H]MK-801.
NMDA Assay. The procedure for measuring specific binding of [^3 H]MK-801 to the N-methyl-D-aspartate receptor complex was a modification of the method of Ransom and Stec [J. Neurochem., Vol. 51, pages 830-836 (1988)]. Cerebral cortices from young male Sprague-Dawley rats (200-300 g) were homogenized with 10 volumes ice-cold 0.32M sucrose using a motor-driven glass/Teflon homogenizer. The homogenate was centrifuged at 1,000 g for 10 minutes and the pellet was discarded. The supernatant was then centrifuged at 18,000 g for 20 minutes. The 18,000 g pellet was then resuspended in 10 volumes buffer A (5 mm Tris-HCl, pH 7.7) at 4° C., homogenized using high-intensity ultrasound and centrifuged at 8,000 for 20 minutes. The supernatant and upper buffy coat of the pellet were combined and centrifuged at 50,000 g for 20 minutes. The pellet was then resuspended in 10 volumes buffer A and homogenized using high-intensity ultrasound. These resuspended membranes were then centrifuged at 50,000 g, discarding the supernatant. The membranes were washed in this manner an additional three times and stored as a frozen suspension at -80° C. for at least 18 hours, but no longer than 2 weeks before use.
For binding experiments, frozen membranes were thawed, pelleted at 50,000 g for 20 minutes and washed as described above, except that 20 volumes of buffer A were used for resuspension, for a total of four times. The final pellet was resuspended in buffer B (5 mm Tris-HCl, pH 7.5) at 23° C. The binding assay mixture was 1.00 ml buffer B containing 200-300 μg membrane protein, 100 μm L-glutamate, 100 μm glycine, 2 nm [^3 H]MK-801 and tetraamine at the following concentrations: 0 ("100%+L-glu,+gly-Control") and 0.05, 0.1, 0.5, 1, 5, 10, 50, 100, 500 and 1,000 μm. Non-specific binding was determined using 100 μm MK-801.
Binding assays were performed in triplicate at 23° C. for one hour and were terminated by filtration through Whatman GF/B glass fiber filters followed by three 4.0 ml rinses of ice-cold buffer B using a Brandel M-48 Cell Harvester.

[9] = 24 h after regimen, normalized for 30 g mouse
[10] = liver and kidneys, 24 h after regimen, 30 g mouse
[11] = mouse, one day after subchronic equimolar i.p. regimen

CCNCCCCNCCCCNCCCCNCC [DEHSPM, Diethylhomospermine]
LD50 [1]: 325 mg/kg
IC50 (L1210 cells [2]; 96 h, read-out: IC50 96 h): 50 to 90 nM
IC50 (L1210 cells [2]; Mus musculus, L1210, 48 h, 48 h, read-out: IC50 48 h): 200 nM
IC50 (L1210 cells [2]; Mus musculus, L1210, 96 h, 96 h, read-out: IC50 96 h): 70 nM
greater chronic toxicity of DEHSPM v. DENSPM [3]: 4-5 fold
LD50 ([3]; read-out: chronic LD50): 38 mg/kg
SPM level relative to untreated controls (L1210 cells [4]; L1210 cells, 10 μm analogue, 48 hours, control = 100%): 60% and 61%
N-deethylation by L1210 cells (L1210 cells [4]; in vitro conditions): do not N-deethylate
prevention of castor oil-induced diarrhea ([5]; 5 mg/kg subcutaneous, six hour assay): effectively prevented the onset of diarrheal stooling
stool output / diarrhea during 6 hour assay (FIG. 8) ([5]; subcutaneous injection 30 minutes before castor oil 5 ml/kg): virtually no stool output
drug administered remaining in liver and kidney as drug or metabolites [6]: 35%
share of drug remaining in the animal that is in the form of HSPM [6]: 90%
% of total dose present as total drug + metabolite, Kidneys [7, 9]: 9.67%
% of total dose present as total drug + metabolite, Liver [7, 9]: 24.15%
% of total dose present as unmetabolized parent drug, Kidneys [7, 9]: 3.14 ± 1.37%
% of total dose present as unmetabolized parent drug, Liver [7, 9]: 1.84 ± 0.53%
Amount of total dose present as dideethylated metabolite HSPM/(HO)2 HSPM, Kidneys [7, 9]: 0.408 µmol
Amount of total dose present as dideethylated metabolite HSPM/(HO)2 HSPM, Liver [7, 9]: 1.394 µmol
Amount of total dose present as total drug + metabolite, Kidneys [7, 9]: 0.604 µmol
Amount of total dose present as total drug + metabolite, Liver [7, 9]: 1.509 µmol
Amount of total dose present as unmetabolized parent drug, Kidneys [7, 9]: 0.196 µmol
Amount of total dose present as unmetabolized parent drug, Liver [7, 9]: 0.115 µmol
% of total dose present as total drug + metabolite, Both Tissues [7, 10]: 33.8% and 33.82%
% of total dose present as unmetabolized parent drug, Both Tissues [7, 10]: 5.0% and 4.98%
Amount of total dose present as dideethylated metabolite HSPM/(HO)2 HSPM, Both Tissues [7, 10]: 1.80 µmol and 1.802 µmol
Amount of total dose present as total drug + metabolite, Both Tissues [7, 10]: 2.11 µmol and 2.113 µmol
Amount of total dose present as unmetabolized parent drug, Both Tissues [7, 10]: 0.313 µmol and 0.311 µmol
level of unchanged drug in kidney [7, 11]: 409±178 nmol/g wet weight
level of unchanged drug in liver [7, 11]: 43.9±12.6 nmol/g wet weight
Ki ([8]; estimated from Lineweaver-Burke plots, read-out: Ki, [3H]-spermidine transport): 1400 nM
Ki ([8]; tetraamine analogues, radiolabeled spermidine uptake, read-out: Ki, actual (Table 1)): 1400 nM
concentration showing agonist activity on MK-801 binding (NMDA receptor): 0.5-1.0 μm
concentrations of maximal antagonism of MK-801 binding (NMDA receptor): ≥ 50 μm
concentrations showing marked antagonist activity on MK-801 binding (NMDA receptor): above 5 μm
